Results: ChEMBL document CHEMBL4219107, “Synthesis and evaluation of 1H-pyrrole-2,5-dione derivatives as cholesterol absorption inhibitors for suppressing the formation of foam cells and inflammatory response” (Bioorg Med Chem, 2018)
Active and inactive are the calls of the source. No cut-off for these calls is given here.

Assays:
[1] = Cytotoxicity against HEK293 cells after 48 hrs by MTT assay; type: cell-based; settings: human, read-out: LC50
[2] = biological target: T1, NPC1-like intracellular cholesterol transporter 1 (Homo sapiens) (UniProt Q9UHC9); assay: Inhibition of NPC1L1 in human Caco2 cells assessed as decrease in cholesterol uptake at 100 uM preincubated for 24 hrs followed by stigmosterol substrate addition measured after 24 hrs by HPLC method; type: cell-based
T1 sequence (whole entry): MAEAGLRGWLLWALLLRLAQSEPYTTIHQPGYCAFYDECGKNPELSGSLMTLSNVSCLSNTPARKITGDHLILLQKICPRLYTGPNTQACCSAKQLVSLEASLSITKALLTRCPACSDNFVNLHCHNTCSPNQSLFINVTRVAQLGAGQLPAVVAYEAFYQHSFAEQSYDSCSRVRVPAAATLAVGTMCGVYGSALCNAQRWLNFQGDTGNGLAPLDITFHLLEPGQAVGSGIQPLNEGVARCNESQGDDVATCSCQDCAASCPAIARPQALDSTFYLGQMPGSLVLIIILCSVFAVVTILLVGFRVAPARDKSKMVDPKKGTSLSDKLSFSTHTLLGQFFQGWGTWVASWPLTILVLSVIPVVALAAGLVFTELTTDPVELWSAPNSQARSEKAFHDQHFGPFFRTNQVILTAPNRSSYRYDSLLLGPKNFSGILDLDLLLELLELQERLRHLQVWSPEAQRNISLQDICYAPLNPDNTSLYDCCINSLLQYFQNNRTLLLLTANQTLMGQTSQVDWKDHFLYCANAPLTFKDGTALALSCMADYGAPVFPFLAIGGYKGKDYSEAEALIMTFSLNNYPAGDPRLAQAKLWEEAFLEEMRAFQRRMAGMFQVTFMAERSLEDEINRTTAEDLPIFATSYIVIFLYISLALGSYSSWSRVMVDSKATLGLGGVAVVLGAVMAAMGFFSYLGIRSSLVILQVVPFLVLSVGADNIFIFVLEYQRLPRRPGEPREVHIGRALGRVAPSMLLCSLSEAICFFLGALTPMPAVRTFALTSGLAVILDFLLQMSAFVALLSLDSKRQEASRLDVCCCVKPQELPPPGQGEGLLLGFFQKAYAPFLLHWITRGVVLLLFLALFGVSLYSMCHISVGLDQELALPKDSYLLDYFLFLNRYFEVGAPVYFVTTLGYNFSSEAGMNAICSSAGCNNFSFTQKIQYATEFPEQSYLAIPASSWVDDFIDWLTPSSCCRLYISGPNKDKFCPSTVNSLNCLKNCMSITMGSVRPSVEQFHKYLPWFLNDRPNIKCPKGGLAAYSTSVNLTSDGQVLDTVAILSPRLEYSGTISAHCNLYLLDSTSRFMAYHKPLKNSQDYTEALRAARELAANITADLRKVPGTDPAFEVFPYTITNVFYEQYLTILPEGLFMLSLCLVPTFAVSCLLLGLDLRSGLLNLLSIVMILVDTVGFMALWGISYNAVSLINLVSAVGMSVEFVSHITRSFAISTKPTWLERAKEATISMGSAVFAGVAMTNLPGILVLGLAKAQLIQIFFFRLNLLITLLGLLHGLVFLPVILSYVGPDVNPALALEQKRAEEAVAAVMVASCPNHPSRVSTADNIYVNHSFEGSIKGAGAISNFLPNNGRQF

[3] = Cytotoxicity against mouse RAW264.7 cells after 48 hrs by MTT assay; type: cell-based; settings: read-out: LC50
[4] = Octanol-water partition coefficient, log P of the compound measured after 4 hrs by HPLC analysis; type: physicochemical
[5] = biological target: T1, NPC1-like intracellular cholesterol transporter 1 (Homo sapiens); assay: Inhibition of NPC1L1 in human Caco2 cells assessed as decrease in cholesterol uptake at 100 uM preincubated for 24 hrs followed by stigmosterol substrate addition measured after 24 hrs by HPLC method relative to control; type: cell-based
[6] = test system: RAW264.7; assay: Antiinflammatory activity against mouse RAW264.7 cells assessed as decrease in cholesterol-methyl-beta-cyclodextrin-induced ROS level at 30 uM relative to control; type: functional; parameters: scale not given: the % may be the effect or the level left
[7] = biological target: NPC1-like intracellular cholesterol transporter 1 (Mus musculus) (UniProt Q6T3U4); assay: Inhibition of NPC1L1-mediated cholesterol-methyl-beta-cyclodextrin accumulation in mouse RAW264.7 cells incubated for 72 hrs by Oil Red O/hematoxyline staining based microscopic analysis; type: cell-based
NPC1-like intracellular cholesterol transporter 1 (Mus musculus), sequence (Q6T3U4 21-1333 limits assumed): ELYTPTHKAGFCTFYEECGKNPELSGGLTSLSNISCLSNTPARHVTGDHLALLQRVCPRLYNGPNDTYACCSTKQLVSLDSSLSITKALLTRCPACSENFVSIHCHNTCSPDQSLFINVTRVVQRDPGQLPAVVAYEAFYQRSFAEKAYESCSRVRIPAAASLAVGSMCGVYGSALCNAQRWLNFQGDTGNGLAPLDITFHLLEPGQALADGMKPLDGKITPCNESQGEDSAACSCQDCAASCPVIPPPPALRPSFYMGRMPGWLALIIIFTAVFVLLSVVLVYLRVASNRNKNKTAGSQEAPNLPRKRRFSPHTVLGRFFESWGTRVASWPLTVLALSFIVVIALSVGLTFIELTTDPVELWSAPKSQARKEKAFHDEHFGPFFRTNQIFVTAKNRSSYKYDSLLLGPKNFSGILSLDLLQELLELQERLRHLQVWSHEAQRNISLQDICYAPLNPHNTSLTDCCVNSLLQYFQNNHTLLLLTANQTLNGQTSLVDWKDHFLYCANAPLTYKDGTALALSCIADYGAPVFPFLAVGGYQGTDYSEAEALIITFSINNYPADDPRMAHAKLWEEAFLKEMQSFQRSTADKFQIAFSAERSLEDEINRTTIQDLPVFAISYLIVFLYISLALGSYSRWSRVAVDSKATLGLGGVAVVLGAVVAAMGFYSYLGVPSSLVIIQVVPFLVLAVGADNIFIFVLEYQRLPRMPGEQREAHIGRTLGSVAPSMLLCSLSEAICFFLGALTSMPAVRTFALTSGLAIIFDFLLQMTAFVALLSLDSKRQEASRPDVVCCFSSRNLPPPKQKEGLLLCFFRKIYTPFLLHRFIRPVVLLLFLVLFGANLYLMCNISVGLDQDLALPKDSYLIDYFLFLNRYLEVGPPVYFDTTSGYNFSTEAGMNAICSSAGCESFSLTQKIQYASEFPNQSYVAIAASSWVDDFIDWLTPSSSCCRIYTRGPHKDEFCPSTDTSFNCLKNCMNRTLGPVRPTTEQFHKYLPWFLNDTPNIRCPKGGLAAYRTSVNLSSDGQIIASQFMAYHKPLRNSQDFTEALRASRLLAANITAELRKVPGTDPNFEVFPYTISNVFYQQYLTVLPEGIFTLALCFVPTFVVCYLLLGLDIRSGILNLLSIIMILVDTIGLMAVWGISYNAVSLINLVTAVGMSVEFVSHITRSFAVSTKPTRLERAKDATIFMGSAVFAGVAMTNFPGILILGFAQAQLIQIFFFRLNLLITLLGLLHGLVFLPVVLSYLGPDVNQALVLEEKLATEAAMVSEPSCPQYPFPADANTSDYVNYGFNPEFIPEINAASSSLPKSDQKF

[8] = biological target: NPC1-like intracellular cholesterol transporter 1 (Mus musculus) (UniProt Q6T3U4); assay: Inhibition of NPC1L1-mediated cholesterol-methyl-beta-cyclodextrin accumulation in mouse RAW264.7 cells assessed as decrease in foam cell formation by measuring decrease in LDH level at 30 uM relative to control; type: cell-based; parameters: scale not given: the % may be the effect or the level left
[9] = biological target: NPC1-like intracellular cholesterol transporter 1 (Mus musculus) (UniProt Q6T3U4); assay: Inhibition of NPC1L1-mediated cholesterol-methyl-beta-cyclodextrin accumulation in mouse RAW264.7 cells assessed as decrease in foam cell formation by measuring decrease in MDA level at 30 uM relative to control; type: cell-based; parameters: scale not given: the % may be the effect or the level left
[10] = biological target: NPC1-like intracellular cholesterol transporter 1 (Mus musculus) (UniProt Q6T3U4); assay: Inhibition of NPC1L1 in mouse RAW264.7 cells assessed as decrease in choleserol-D7 absorption at 30 uM after 72 hrs by LC-MS/MS analysis relative to control; type: cell-based
[11] = test system: RAW264.7; assay: Antiinflammatory activity against mouse RAW264.7 cells assessed as decrease in cholesterol-methyl-beta-cyclodextrin-induced TNFalpha release at 30 uM relative to control; type: functional; parameters: scale not given: the % may be the effect or the level left
[12] = test system: RAW264.7; assay: Antiinflammatory activity against mouse RAW264.7 cells assessed as decrease in cholesterol-methyl-beta-cyclodextrin-induced ROS level; type: functional, cell-based
[13] = biological target: NPC1-like intracellular cholesterol transporter 1 (Mus musculus) (UniProt Q6T3U4); assay: Inhibition of NPC1L1-mediated cholesterol-methyl-beta-cyclodextrin accumulation in mouse RAW264.7 cells assessed as decrease in foam cell formation by measuring decrease in LDH level; type: cell-based
[14] = test system: RAW264.7; assay: Antiinflammatory activity against mouse RAW264.7 cells assessed as decrease in cholesterol-methyl-beta-cyclodextrin-induced TNFalpha release; type: functional, cell-based
[15] = biological target: NPC1-like intracellular cholesterol transporter 1 (Mus musculus) (UniProt Q6T3U4); assay: Inhibition of NPC1L1-mediated cholesterol-methyl-beta-cyclodextrin accumulation in mouse RAW264.7 cells assessed as decrease in foam cell formation by measuring decrease in MDA level; type: cell-based

Compound | CC50 at 48 h [1] [µM] | inhibition [2] | CC50 at 48 h [3] [µM] | logP at 4 h [4] | also measured
CCc1ccc(S(=O)(=O)NCCN2C(=O)C(c3ccc(O)cc3)=C(c3ccc(F)cc3)C2=O)cc1 | 80.4 | Active | > 100 | 2 to 4 | 
CCN(CC)CCCOc1ccc(C2=C(c3ccc(F)cc3)C(=O)N(CCC(O)(c3ccccc3)c3ccccc3)C2=O)cc1 | 32.7 |  | 37.6 | > 5 | inhibition [5]: 69.6 to 72.6%
CCN(CC)CCOc1ccc(C2=C(c3ccc(F)cc3)C(=O)N(CCC(O)(c3ccccc3)c3ccccc3)C2=O)cc1 | 31.5 |  | 32.7 | > 5 | inhibition [5]: 69.6 to 72.6%
O=C1C(c2ccc(O)cc2)=C(c2ccc(F)cc2)C(=O)N1CCCNS(=O)(=O)c1ccc(C(F)(F)F)cc1 | 19.7 | Active | 34.3 | 2 to 4 | 
CCc1ccc(S(=O)(=O)NCCCCN2C(=O)C(c3ccc(F)cc3)=C(c3ccc(OCC(=O)NCC(=O)NCC(=O)O)cc3)C2=O)cc1 | > 100 | Active | > 100 | 2 to 4 | 
O=C1[C@H](CC[C@H](O)c2ccc(F)cc2)[C@@H](c2ccc(O)cc2)N1c1ccc(F)cc1 [EZETIMIBE] | 57.6 |  | 44.2 |  | inhibition [5]: 51.3%; Activity [6]: 46.5%; inhibition [7]: Dose-dependent effect; Activity [8]: 36.4%; Activity [9]: 76.3%; inhibition [10]: 80.3%; Activity [11]: 30.9%
O=C1C(c2ccc(O)cc2)=C(c2ccc(F)cc2)C(=O)N1CCCNS(=O)(=O)c1ccc(OC(F)(F)F)cc1 | 24.8 | Active | 41.2 | 2 to 4 | 
O=C1C(c2ccc(O)cc2)=C(c2ccc(F)cc2)C(=O)N1CCC(O)(c1ccccc1)c1ccccc1 | > 100 | Active | > 100 | 2 to 4 | Activity [12]: Dose-dependent effect; inhibition [13]: Dose-dependent effect; Activity [14]: Dose-dependent effect; Activity [6]: 51%; inhibition [15]: Dose-dependent effect; inhibition [7]: Dose-dependent effect; Activity [8]: 33.3%; Activity [9]: 79.6%; inhibition [10]: 67.9%; Activity [11]: 35.1%
CCN(CC)CCCCOc1ccc(C2=C(c3ccc(F)cc3)C(=O)N(CCC(O)(c3ccccc3)c3ccccc3)C2=O)cc1 | 47.3 |  | 43.2 | > 5 | inhibition [5]: 69.6 to 72.6%
Cc1ccc(S(=O)(=O)NCCCCN2C(=O)C(c3ccc(F)cc3)=C(c3ccc(OCC(=O)NCC(=O)NCC(=O)O)cc3)C2=O)cc1 | > 100 | Active | > 100 | 2 to 4 | 
O=C1C(c2ccc(F)cc2)=C(c2ccc(OCCCCS(=O)(=O)O)cc2)C(=O)N1CCC(O)(c1ccccc1)c1ccccc1 |  | inactive |  |  | 
CCc1ccc(S(=O)(=O)NCCCN2C(=O)C(c3ccc(O)cc3)=C(c3ccc(F)cc3)C2=O)cc1 | 11.5 | Active | 17.2 | 2 to 4 | 
O=C1C(c2ccc(F)cc2)=C(c2ccc(OCCS(=O)(=O)O)cc2)C(=O)N1CCC(O)(c1ccccc1)c1ccccc1 |  | inactive |  |  | 
O=C1C(c2ccc(F)cc2)=C(c2ccc(OCCCS(=O)(=O)O)cc2)C(=O)N1CCC(O)(c1ccccc1)c1ccccc1 |  | inactive |  |  | 
